In ChEMBL document CHEMBL1833905, “Design, synthesis and primary activity assay of tripeptidomimetics as histone deacetylase inhibitors with linear linker and branched cap group” (Eur J Med Chem, 2011):

Experiments:
Histone deacetylase 8 = target: T1, Histone deacetylase 8 (Homo sapiens, UniProt Q9BY41); assay: Inhibition of human HDAC8 expressed in Escherichia coli using Boc-Lys (acetyl)-AMC as substrate treated for 5 mins before substrate addition measured after 30 mins by fluorescence assay
T1 sequence (Q9BY41 whole entry): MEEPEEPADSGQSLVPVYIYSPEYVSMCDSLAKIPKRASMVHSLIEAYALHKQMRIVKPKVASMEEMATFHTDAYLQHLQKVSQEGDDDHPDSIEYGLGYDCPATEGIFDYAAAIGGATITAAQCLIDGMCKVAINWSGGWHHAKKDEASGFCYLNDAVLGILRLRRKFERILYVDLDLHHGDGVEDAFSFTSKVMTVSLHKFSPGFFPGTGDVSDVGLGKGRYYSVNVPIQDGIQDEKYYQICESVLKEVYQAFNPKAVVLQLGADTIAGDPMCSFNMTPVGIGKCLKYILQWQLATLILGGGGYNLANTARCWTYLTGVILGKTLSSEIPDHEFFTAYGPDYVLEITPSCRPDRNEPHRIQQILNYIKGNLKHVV

Histone deacetylase 1 = Histone deacetylase 1 (Homo sapiens, UniProt Q13547); assay: Inhibition of human HDAC1 expressed in Escherichia coli using fluorogenic substrate treated for 5 mins before substrate addition measured after 30 mins by fluorescence assay
MCF7 = assay: Antiproliferative activity against human MCF7 cells after 48 hrs by MTT assay; assay type: functional, cell-based; details: MCF7, 48 h
MDA-MB-231 = assay: Antiproliferative activity against human MDA-MB-231 cells after 48 hrs by MTT assay; assay type: functional, cell-based; details: MDA-MB-231, 48 h
PC-3 = assay: cells; details: Homo sapiens, PC-3, 48 h

Histone deacetylase 1, sequence (Q13547 whole entry): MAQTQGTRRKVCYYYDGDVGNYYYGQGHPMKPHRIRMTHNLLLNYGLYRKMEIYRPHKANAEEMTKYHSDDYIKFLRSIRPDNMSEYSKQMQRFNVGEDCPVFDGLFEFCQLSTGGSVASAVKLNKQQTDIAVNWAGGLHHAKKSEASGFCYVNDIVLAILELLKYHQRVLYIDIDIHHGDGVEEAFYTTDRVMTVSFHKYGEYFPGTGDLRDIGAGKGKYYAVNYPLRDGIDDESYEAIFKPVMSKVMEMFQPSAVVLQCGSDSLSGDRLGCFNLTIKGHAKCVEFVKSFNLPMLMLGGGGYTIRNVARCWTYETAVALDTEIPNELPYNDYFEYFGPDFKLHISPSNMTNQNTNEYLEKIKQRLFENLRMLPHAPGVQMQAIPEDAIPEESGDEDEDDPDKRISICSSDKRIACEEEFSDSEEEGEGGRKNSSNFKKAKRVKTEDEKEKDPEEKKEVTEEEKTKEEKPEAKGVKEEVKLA

Row | Structure (SMILES) | IC50 (Histone deacetylase 8) | IC50 (Histone deacetylase 1) | IC50 (MCF7) | IC50 (MDA-MB-231) | IC50 (PC-3)
1 | CC(C)(C)OC(=O)NCCCC(=O)N1CC2(C[C@H]1C(=O)NCCCCCC(=O)NO)SCCS2 | 960 nM | – | – | – | –
2 | O=C(CCCCCNC(=O)[C@@H]1CC2(CN1)SCCS2)NO | 2590 nM | – | – | – | –
3 | NCCC(=O)N1CC2(C[C@H]1C(=O)NCCCCCC(=O)NO)SCCS2 | 1930 nM | – | – | – | –
4 | CC(C)C[C@H](NC(=O)OC(C)(C)C)C(=O)N1CC2(C[C@H]1C(=O)NCCCCCC(=O)NO)SCCS2 | – | 680 nM | 3510 nM | 3500 nM | 4300 nM
5 | CC(C)(C)OC(=O)N[C@@H](Cc1ccccc1)C(=O)N1CC2(C[C@H]1C(=O)NCCCCCC(=O)NO)SCCS2 | 35 nM | 980 nM | 7780 nM | 2790 nM | 12700 nM
6 | N[C@@H](Cc1ccccc1)C(=O)N1CC2(C[C@H]1C(=O)NCCCCCC(=O)NO)SCCS2 | 840 nM | – | – | – | –
7 | CC(C)(C)OC(=O)N[C@@H](Cc1ccc(O)cc1)C(=O)N1CC2(C[C@H]1C(=O)NCCCCCC(=O)NO)SCCS2 | 21 nM | 450 nM | 21600 nM | 30500 nM | 24700 nM
8 | N[C@@H](Cc1ccc(O)cc1)C(=O)N1CC2(C[C@H]1C(=O)NCCCCCC(=O)NO)SCCS2 | 490 nM | 450 nM | > 100000 nM | > 100000 nM | > 100000 nM
9 | CC(C)(C)OC(=O)N[C@@H](Cc1c[nH]c2ccccc12)C(=O)N1CC2(C[C@H]1C(=O)NCCCCCC(=O)NO)SCCS2 | 140 nM | 750 nM | 9160 nM | 5830 nM | 13700 nM
10 | N[C@@H](Cc1c[nH]c2ccccc12)C(=O)N1CC2(C[C@H]1C(=O)NCCCCCC(=O)NO)SCCS2 | 690 nM | – | – | – | –
11 | CC(C)(C)OC(=O)NCCCC[C@H](NC(=O)OC(C)(C)C)C(=O)N1CC2(C[C@H]1C(=O)NCCCCCC(=O)NO)SCCS2 | 350 nM | 980 nM | 42500 nM | 12800 nM | 34600 nM
12 | NCCCC[C@H](N)C(=O)N1CC2(C[C@H]1C(=O)NCCCCCC(=O)NO)SCCS2 | 4770 nM | – | – | – | –
13 | O=C(CCCCCCC(=O)Nc1ccccc1)NO [VORINOSTAT] | – | – | – | – | 1980 nM
